Measurements published in patent US10375962B2, “Heterocycle derivatives as pesticides” (BAYER CROPSCIENCE AKTIENGESELLSCHAFT, priority 2016, dated 2019).
One block for each compound: values may come before it.

Experiments:
[1] = tested on: caterpillars of the armyworm (Spodoptera frugiperda); assay: Spodoptera frugiperda - spray test; assay type: in vivo; details: maize leaf discs, after 7 days
Method: Solvent: 78.0 parts by weight of acetone • • 1.5 parts by weight of dimethylformamide Emulsifier: alkylaryl polyglycol ether […] To produce further test concentrations, the formulation is diluted with emulsifier-containing water. Leaf discs of maize (Zea mays) are sprayed with an active compound preparation of the desired concentration and, after drying, populated with caterpillars of the armyworm (Spodoptera frugiperda).

[2] = log P by HPLC on a reversed-phase column (C 18), EEC Directive 79/831 Annex V.A8; assay type: physicochemical
Text: Called log P (HCOOH) in the table.
Called log P (neutral) in the table.

[3] = tested on: green peach aphid (Myzus persicae); assay: Myzus persicae spray test (bell pepper plants); assay type: in vivo; details: application rate 20 ppm, after 6 days
Method: Solvent: 14 parts by weight of dimethylformamide
(§1) Emulsifier: alkylaryl polyglycol ether
(§2) To produce a suitable active compound formulation, 1 part by weight of active compound is dissolved with the stated parts by weight of solvent and made up with water containing an emulsifier concentration of 1000 ppm until the desired concentration is attained. To produce further test concentrations, the formulation is diluted with emulsifier-containing water. If the addition of ammonium salts or/and penetrants is required, these are each added in a concentration of 1000 ppm to the formulation solution.
Bell pepper plants (Capsicum annuum) severely infested with the green peach aphid (Myzus persicae) are treated by spraying with the active compound formulation in the desired concentration.
After 6 days, the kill in % is determined. 100% means that all of the aphids have been killed; 0% means that none of the aphids have been killed.

[4] = tested on: L1 larvae of the Australian sheep blowfly (Lucilia cuprina); assay: Lucilia cuprina test; assay type: in vivo; details: application rate 100 ppm; after 2 days
Method: (§3) Solvent: dimethyl sulphoxide
(§4) To produce a suitable active compound formulation, 10 mg of active compound are mixed with 0.5 ml of dimethyl sulphoxide, and the concentrate is diluted with water to the desired concentration.
About 20 L1 larvae of the Australian sheep blowfly (Lucilia cuprina) are transferred into a test vessel containing minced horsemeat and the active compound formulation of the desired concentration.
After 2 days, the kill in % is determined. 100% means that all the larvae have been killed; 0% means that no larvae have been killed.

[5] = tested on: adult cat fleas (Ctenocephalides felis); assay: Ctenocephalides felis - in vitro contact tests with adult cat fleas; assay type: in vivo; details: application rate 5 μg/cm^2; after 48 h
Method: For the coating of the test tubes, 9 mg of active compound are first dissolved in 1 ml of acetone p.a. and then diluted to the desired concentration with acetone p.a. 250 μl of the solution are distributed homogeneously on the inner walls and the base of a 25 ml test tube by turning and rocking on an orbital shaker (rocking rotation at 30 rpm for 2 h). With 900 ppm of active compound solution and internal surface area 44.7 cm^2, given homogeneous distribution, an area-based dose of 5 μg/cm^2 is achieved.
After the solvent has evaporated off, the tubes are populated with 5-10 adult cat fleas (Ctenocephalides felis), sealed with a perforated plastic lid and incubated in a horizontal position at room temperature and ambient humidity. After 48 h, efficacy is determined. To this end, the test tubes are stood upright and the fleas are knocked to the base of the tube. Fleas which remain motionless at the base or move in an uncoordinated manner are considered to be dead or moribund.
100% efficacy means that all the fleas were dead or moribund. 0% efficacy means that no fleas were harmed.

[6] = tested on: unfed adult cat fleas (Ctenocephalides felis); assay: Ctenocephalides felis - oral test; assay type: in vivo; details: application rate 100 ppm in citrated cattle blood; after 2 days
Method: as §3
For the purpose of production of a suitable active compound formulation, 10 mg of active compound are mixed with 0.5 ml of dimethyl sulphoxide. Dilution with citrated cattle blood gives the desired concentration.
About 20 unfed adult cat fleas (Ctenocephalides felis) are placed into a chamber which is closed at the top and bottom with gauze. A metal cylinder whose bottom end is closed with parafilm is placed onto the chamber. The cylinder contains the blood/active compound formulation, which can be imbibed by the fleas through the parafilm membrane.
After 2 days, the kill in % is determined. 100% means that all of the fleas have been killed; 0% means that none of the fleas have been killed.

[7] = tested on: larvae of the mustard beetle (Phaedon cochleariae); assay: Phaedon cochleariae - spray test; assay type: in vivo; details: after 7 days
Method: Solvent: 78.0 parts by weight of acetone • • 1.5 parts by weight of dimethylformamide
as §1
as §2, with “water.” for “water. If the addition of ammonium salts or/and penetrants is required, these are each added in a concentration of 1000 ppm to the formulation solution.”
Discs of Chinese cabbage leaves (Brassica pekinensis) are sprayed with an active compound formulation of the desired concentration and, after drying, populated with larvae of the mustard beetle (Phaedon cochleariae).
After 7 days, the efficacy in % is determined. 100% means that all the beetle larvae have been killed and 0% means that none of the beetle larvae have been killed.

[8] = tested on: adult houseflies (Musca domestica); assay: Musca domestica test; assay type: in vivo; details: application rate 100 ppm; after 2 days
Method: as §3, §4
Vessels containing a sponge treated with sugar solution and the active compound formulation of the desired concentration are populated with 10 adult houseflies (Musca domestica).
After 2 days, the kill in % is determined. 100% means that all of the flies have been killed; 0% means that none of the flies have been killed.

[9] = tested on: engorged adult female cattle ticks (Boophilus microplus); assay: Boophilus microplus - injection test; assay type: in vivo; details: application rate 20 μg/animal, after 7 days
Method: as §3
To produce a suitable active compound formulation, 10 mg of active compound are mixed with 0.5 ml of solvent and the concentrate is diluted with solvent to the desired concentration.
1 μl of the active compound solution is injected into the abdomen of 5 engorged adult female cattle ticks (Boophilus microplus). The animals are transferred into dishes and kept in a climate-controlled room.
Efficacy is assessed after 7 days by laying of fertile eggs. Eggs which are not visibly fertile are stored in a climate-controlled cabinet until the larvae hatch after about 42 days. An efficacy of 100% means that none of the ticks has laid any fertile eggs; 0% means that all the eggs are fertile.

[10] = tested on: southern root-knot nematode (Meloidogyne incognita); assay: Meloidogyne incognita test; assay type: in vivo; details: application rate 20 ppm; lettuce; after 14 days
Method: Solvent: 125.0 parts by weight of acetone
To produce a suitable preparation of active compound, 1 part by weight of active compound is mixed with the stated amount of solvent and the concentrate is diluted with water to the desired concentration.
Vessels are filled with sand, active compound solution, an […] suspension of the southern root-knot nematode (Meloidogyne incognita) and lettuce seeds. The lettuce seeds germinate and the plants develop. The galls develop on the roots.
After 14 days, the nematicidal efficacy in % is determined by the formation of galls. 100% means that no galls were found; 0% means that the number of galls on the treated plants corresponds to the untreated control.

[11] = tested on: green peach aphid (Myzus persicae); assay: Myzus persicae - spray test (Chinese cabbage leaf discs); assay type: in vivo; details: after 5 days
Method: Solvent: 78 parts by weight of acetone • • 1.5 parts by weight of dimethylformamide Emulsifier: alkylaryl polyglycol ether
as §2, with “water.” for “water. If the addition of ammonium salts or/and penetrants is required, these are each added in a concentration of 1000 ppm to the formulation solution.”
Discs of Chinese cabbage leaves (Brassica pekinensis) infested by all stages of the green peach aphid (Myzus persicae) are sprayed with an active compound formulation of the desired concentration.
After 5 days, the efficacy in % is determined. 100% means that all the aphids have been killed and 0% means that none of the aphids have been killed.

SMILES: CCS(=O)(=O)c1ccc(N2Cc3ccc(Cl)cc3C2)nc1-c1nc2cc(C(F)(F)F)ncc2n1C [Example I-18]
efficacy ([1]; application rate 100 g/ha): 100%
efficacy ([1]; application rate 500 g/ha): 100%
LOGP_HCOOH (log P (HCOOH)) ([2]; pH 2.7): 4.03
LOGP_NEUTRAL (log P (neutral)) ([2]; pH 7.8): 3.99
efficacy (kill) [3]: 98%
efficacy (kill) [4]: 100%
efficacy (fleas dead or moribund) [5]: 100%
efficacy (kill) [6]: 100%
efficacy ([7]; application rate 100 g/ha): 100%
efficacy ([7]; application rate 500 g/ha): 100%
efficacy (kill) [8]: 80%

SMILES: CCS(=O)(=O)c1ccc(-n2ncc3cccnc32)nc1-c1nc2cc(C(F)(F)F)ncc2n1C [Example I-6]
efficacy ([11]; application rate 100 g/ha): 100%
efficacy ([11]; application rate 500 g/ha): 100%
efficacy ([1]; application rate 100 g/ha): 100%
efficacy ([1]; application rate 500 g/ha): 100%
LOGP_HCOOH (log P (HCOOH)) ([2]; pH 2.7): 2.67
LOGP_NEUTRAL (log P (neutral)) ([2]; pH 7.8): 2.63
efficacy (kill) [4]: 100%
efficacy (fleas dead or moribund) [5]: 100%
efficacy (laying of fertile eggs) [9]: 90%
efficacy (kill) [6]: 90%
efficacy ([7]; application rate 100 g/ha): 100%
efficacy ([7]; application rate 500 g/ha): 100%
efficacy (kill) [8]: 100%

Continued, in another order:

LOGP_HCOOH (log P (HCOOH)) ([2]; acidic range, pH 2.7, 0.1% aqueous formic acid/acetonitrile, 55° C.): 4.27
LOGP_NEUTRAL (log P (neutral)) ([2]; neutral range, pH 7.8, 0.001 molar aqueous ammonium hydrogencarbonate/acetonitrile, 55° C.): 4.24
SMILES: CCS(=O)(=O)c1ccc(-n2ncc3c(Cl)cccc32)nc1-c1nc2cc(C(F)(F)F)ncc2n1C [Example I-10]
efficacy ([1]; application rate 100 g/ha): 100%
efficacy ([1]; application rate 500 g/ha): 100%
efficacy (kill) [4]: 100%
efficacy (laying of fertile eggs) [9]: 80%
efficacy ([7]; application rate 100 g/ha): 100%
efficacy ([7]; application rate 500 g/ha): 100%
efficacy (kill) [8]: 100%

LOGP_HCOOH (log P (HCOOH)) ([2]; pH 2.7): 3.13
LOGP_NEUTRAL (log P (neutral)) ([2]; pH 7.8): 3.05
SMILES: CCS(=O)(=O)c1ccc(-n2ccc3ncc(Cl)cc32)nc1-c1nc2cc(C(F)(F)F)ncc2n1C [Example I-28]
efficacy ([1]; application rate 500 g/ha): 100%
nematicidal efficacy (formation of galls) [10]: 90%
efficacy (kill) [4]: 100%
efficacy (kill) [6]: 80%
efficacy ([7]; application rate 100 g/ha): 100%
efficacy ([7]; application rate 500 g/ha): 100%

LOGP_HCOOH (log P (HCOOH)) ([2]; pH 2.7): 4.41
LOGP_NEUTRAL (log P (neutral)) ([2]; pH 7.8): 4.39
SMILES: CCS(=O)(=O)c1ccc(-n2ccc3cc(Cl)cnc32)nc1-c1nc2cc(C(F)(F)F)ncc2n1C [Example I-27]
efficacy ([1]; application rate 100 g/ha): 100%
efficacy ([1]; application rate 500 g/ha): 100%
nematicidal efficacy (formation of galls) [10]: 100%
efficacy ([7]; application rate 100 g/ha): 100%
efficacy ([7]; application rate 500 g/ha): 100%

LOGP_HCOOH (log P (HCOOH)) ([2]; pH 2.7): 2.70
LOGP_NEUTRAL (log P (neutral)) ([2]; pH 7.8): 2.72
SMILES: CCS(=O)(=O)c1ccc(-n2nc3cccc(Br)n3c2=O)nc1-c1nc2cc(C(F)(F)F)ncc2n1C [Example I-36]
nematicidal efficacy (formation of galls) [10]: 100%
